pIC50: −log10 of the molar value. Where only a bound is given, the exact number is not on record here.

In one assay the target is T1, MAGL (Mus musculus, UniProt O35678).
T1 construct: Proteomes (mouse brain membrane fraction or cell lysates); from tissue; host or cells: mouse brain membrane fraction (or cell lysates)
T1 sequence (O35678 1-303): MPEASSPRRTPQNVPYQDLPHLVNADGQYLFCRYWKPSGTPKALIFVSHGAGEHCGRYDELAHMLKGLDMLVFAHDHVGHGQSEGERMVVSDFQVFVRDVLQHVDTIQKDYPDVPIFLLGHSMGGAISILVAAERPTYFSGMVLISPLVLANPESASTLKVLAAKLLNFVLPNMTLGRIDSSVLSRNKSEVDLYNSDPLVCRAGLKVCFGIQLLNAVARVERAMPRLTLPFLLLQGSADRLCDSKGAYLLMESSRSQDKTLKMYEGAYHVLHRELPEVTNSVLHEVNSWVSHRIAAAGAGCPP
Description: In vitro competitive activity-based protein profiling (mouse), MAGL gel band. Type of assay: biochemical. The note with it: for pIC50: mouse; for inhibition at 1 µM: read-out: MAGL % inh. 1 μM. The method, boiled down:
(§1)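 Gel-based competitive ABPP: proteome 1.0 mg/mL, inhibitor 30 min 37 °C, then FP-Rh or HT-01 probe (stock 50 μM) 30 min 37 °C; SDS quench, SDS-PAGE, in-gel fluorescence of the enzyme band quantified.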

In the next assay the target is T2, FAAH (Mus musculus, UniProt O08914).
T2 construct: Proteomes (mouse brain membrane fraction or cell lysates); from tissue; host or cells: mouse brain membrane fraction (or cell lysates)
T2 sequence (O08914 1-579): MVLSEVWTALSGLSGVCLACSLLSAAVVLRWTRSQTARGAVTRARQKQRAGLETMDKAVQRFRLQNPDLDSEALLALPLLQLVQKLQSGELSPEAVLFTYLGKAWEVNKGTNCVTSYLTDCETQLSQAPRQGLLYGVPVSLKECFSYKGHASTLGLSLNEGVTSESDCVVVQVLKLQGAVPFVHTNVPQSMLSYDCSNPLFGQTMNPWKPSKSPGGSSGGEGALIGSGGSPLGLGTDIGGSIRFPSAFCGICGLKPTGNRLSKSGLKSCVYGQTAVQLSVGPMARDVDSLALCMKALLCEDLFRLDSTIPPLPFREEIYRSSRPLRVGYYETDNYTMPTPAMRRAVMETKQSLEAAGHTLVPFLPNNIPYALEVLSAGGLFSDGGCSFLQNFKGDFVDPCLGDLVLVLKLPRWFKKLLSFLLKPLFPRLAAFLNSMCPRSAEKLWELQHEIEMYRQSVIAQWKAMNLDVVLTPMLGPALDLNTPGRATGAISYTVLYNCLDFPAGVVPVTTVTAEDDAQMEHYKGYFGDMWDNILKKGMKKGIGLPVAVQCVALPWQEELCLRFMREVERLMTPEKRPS
In words: In vitro competitive activity-based protein profiling (mouse), FAAH gel band. The assay is classed as biochemical. The note with it: for pIC50: mouse; for inhibition at 1 µM: read-out: FAAH % inh. 1 μM. In outline: as §1

One may read the pIC50 as the IC50 on a negative log10 scale, so that one unit is a factor of ten. A lower pIC50 goes with a large IC50. Regarding `CS(=O)(=O)Nc1ccn(C(=O)N2CCN(Cc3ccc(Cl)cc3N3CC4CCC(C3)O4)CC2)n1` [Example 256, N-(1-(4-(2-(8-oxa-3-azabicyclo[3.2.1]octan-3-yl)-4-chlorobenzyl)piperazine-1-carbonyl)-1H-pyrazol-3-yl) methanesulfonamide], on MAGL, the pIC50 is at least 7.00 and the inhibition at 1 µM was at least 75%. For the same compound, on FAAH, the pIC50 was 5.00 to 6.00 and the inhibition at 1 µM lay within 0 to 25%.

For the compound `CS(=O)(=O)Nc1ccn(C(=O)N2CCN(Cc3cc(N4CCOCC4)ccc3Cl)CC2)n1` [Example 258, N-(1-(4-(2-chloro-5-morpholinobenzyl)piperazine-1-carbonyl)-1H-pyrazol-3-yl) methanesulfonamide], the inhibition at 1 µM on MAGL and at FAAH was 0 to 25% each time.

On to `CS(=O)(=O)Nc1ccn(C(=O)N2CCN(Cc3ccc(C(F)(F)F)cc3-c3nnn[nH]3)CC2)n1` [Example 259, N-(1-(4-(2-(1H-tetrazol-5-yl)-4-(trifluoromethyl)benzyl)piperazine-1-carbonyl)-1H-pyrazol-3-yl) methanesulfonamide], for which the results for the inhibition at 1 µM on MAGL and at FAAH were 50 to 75% and 0 to 25%, respectively.

On to `CS(=O)(=O)Nc1ccn(C(=O)N2CCN(Cc3ccc(Cl)c(-c4nnco4)c3)CC2)n1` [Example 260, N-(1-(4-(4-chloro-3-(1,3,4-oxadiazol-2-yl)benzyl)piperazine-1-carbonyl)-1H-pyrazol-3-yl) methanesulfonamide], for which the inhibition at 1 µM at MAGL was at least 75%; on FAAH, 0 to 25%.

For `CS(=O)(=O)Nc1ccn(C(=O)N2CCN(Cc3ccc(Cl)c(-c4ncon4)c3)CC2)n1` [Example 261, N-(1-(4-(4-chloro-3-(1,2,4-oxadiazol-3-yl)benzyl)piperazine-1-carbonyl)-1H-pyrazol-3-yl) methanesulfonamide], the inhibition at 1 µM at MAGL was at least 75%; at FAAH, 0 to 25%.

For `CC(C)C(=O)Nc1ccn(C(=O)N2CCN(Cc3ccc(C(F)(F)F)cc3N3CCCC3)CC2)n1` [Example 263, N-(1-(4-(2-(pyrrolidin-1-yl)-4-(trifluoromethyl)benzyl)piperazine-1-carbonyl)-1H-pyrazol-3-yl)isobutyramide], on MAGL, the pIC50 is 6.00 to 7.00 and the inhibition at 1 µM was at least 75%. Moreover, at FAAH, the pIC50 is 5.00 to 6.00 and the inhibition at 1 µM is 0 to 25%.

With `CS(=O)(=O)Nc1ccn(C(=O)N2CCC3(CCCN3Cc3ccc(Cl)cc3N3CCOCC3)CC2)n1` [Example 264, N-(1-(1-(4-chloro-2-morpholinobenzyl)-1,8-diazaspiro[4.5]decane-8-carbonyl)-1H-pyrazol-3-yl) methanesulfonamide], the inhibition at 1 µM lay in the range of 25 to 50% at MAGL and 0 to 25% at FAAH.

Consider `CC(=O)Nc1ccn(C(=O)N2CCC3(CCCN3Cc3ccc4nc(C)oc4c3)CC2)n1` [Example 265, N-(1-(1-((2-methylbenzo[d]oxazol-6-yl)methyl)-1,8-diazaspiro[4.5]decane-8-carbonyl)-1H-pyrazol-3-yl)acetamide], for which, at MAGL, the negative logarithm of the IC50 (pIC50) is 6.00 to 7.00 and the inhibition at 1 µM is at least 75%. Moreover, on FAAH, the pIC50 was 5.00 to 6.00 and the inhibition at 1 µM was 0 to 25%.

On to `CS(=O)(=O)Nc1ccn(C(=O)N2CCN(Cc3ccc(Cl)c(C4CCCC4)c3)CC2)n1` [Example 272, N-(1-(4-(4-chloro-3-cyclopentylbenzyl)piperazine-1-carbonyl)-1H-pyrazol-3-yl) methanesulfonamide], for which the figures for the inhibition at 1 µM at MAGL and at FAAH were at least 75% and 0 to 25%, respectively.

On to `CS(=O)(=O)Nc1ccn(C(=O)N2CCN(Cc3cccc(C(F)(F)F)c3N3CCC(F)CC3)CC2)n1` [Example 273, N-(1-(4-(2-(4-fluoropiperidin-1-yl)-3-(trifluoromethyl)benzyl)piperazine-1-carbonyl)-1H-pyrazol-3-yl) methanesulfonamide], for which the inhibition at 1 µM on MAGL was at least 75%; on FAAH, 0 to 25%.

As to `CC(=O)Nc1ccn(C(=O)N2CCN(Cc3ccc(C(F)(F)F)cc3N3CCC(C(N)=O)CC3)CC2)n1` [Example 274, 1-(2-((4-(3-acetamido-1H-pyrazole-1-carbonyl)piperazin-1-yl)methyl)-5-(trifluoromethyl)phenyl)piperidine-4-carboxamide], the inhibition at 1 µM at MAGL is at least 75%; on FAAH it was 0 to 25%.

Turning to `CC(=O)Nc1ccn(C(=O)N2CCN(Cc3ccc(C(F)(F)F)cc3N3CCC(NC(C)=O)CC3)CC2)n1` [Example 275, N-(1-(2-((4-(3-acetamido-1H-pyrazole-1-carbonyl)piperazin-1-yl)methyl)-5-(trifluoromethyl)phenyl)piperidin-4-yl)acetamide], the results for the inhibition at 1 µM at MAGL and at FAAH were at least 75% and 0 to 25%, respectively.

As for `CC(=O)Nc1ccn(C(=O)N2CCN(Cc3ccc(C(F)(F)F)cc3N3CCC(O)CC3)CC2)n1` [Example 276, N-(1-(4-(2-(4-hydroxypiperidin-1-yl)-4-(trifluoromethyl)benzyl)piperazine-1-carbonyl)-1H-pyrazol-3-yl)acetamide], the inhibition at 1 µM was at least 75% on MAGL and 0 to 25% at FAAH.

As to `CC(=O)Nc1ccn(C(=O)N2CCN(Cc3ccc(C(F)(F)F)cc3N3CCN(CC(=O)O)CC3)CC2)n1` [Example 277, 2-(4-(2-((4-(3-acetamido-1H-pyrazole-1-carbonyl)piperazin-1-yl)methyl)-5-(trifluoromethyl)phenyl)piperazin-1-yl)acetic acid], the inhibition at 1 µM is at least 75% on MAGL and 0 to 25% on FAAH.

As for `CS(=O)(=O)Nc1ccn(C(=O)N2CCN(Cc3ccc(C(F)(F)F)c(N4CCN5CCC[C@@H]5C4)c3)CC2)n1` [Example 278, (R)-N-(1-(4-(3-(hexahydropyrrolo[1,2-a]pyrazin-2(1H)-yl)-4-(trifluoromethyl)benzyl)piperazine-1-carbonyl)-1H-pyrazol-3-yl) methanesulfonamide], the values for the inhibition at 1 µM at MAGL and at FAAH were at least 75% and 0 to 25%, respectively.

On to `CC(=O)NC1CCN(c2cc(CN3CCN(C(=O)n4ccc(NS(C)(=O)=O)n4)CC3)ccc2C(F)(F)F)CC1` [Example 279, N-(1-(5-((4-(3-(methylsulfonamido)-1H-pyrazole-1-carbonyl)piperazin-1-yl)methyl)-2-(trifluoromethyl)phenyl)piperidin-4-yl)acetamide], for which the inhibition at 1 µM was at least 75% on MAGL and 0 to 25% on FAAH.

In the case of `CC(C)(O)C1CCN(c2cc(CN3CCN(C(=O)n4ccc(NS(C)(=O)=O)n4)CC3)ccc2C(F)(F)F)CC1` [Example 280, N-(1-(4-(3-(4-(2-hydroxypropan-2-yl)piperidin-1-yl)-4-(trifluoromethyl)benzyl)piperazine-1-carbonyl)-1H-pyrazol-3-yl) methanesulfonamide], the inhibition at 1 µM on MAGL was at least 75%; at FAAH, 0 to 25%.

As to `CS(=O)(=O)Nc1ccn(C(=O)N2CCN(Cc3ccc(C(F)(F)F)c(N4CCN(CC(=O)O)CC4)c3)CC2)n1` [Example 281, 2-(4-(5-((4-(3-(methylsulfonamido)-1H-pyrazole-1-carbonyl)piperazin-1-yl)methyl)-2-(trifluoromethyl)phenyl)piperazin-1-yl)acetic acid], the inhibition at 1 µM at MAGL and at FAAH was 0 to 25% each time.

As for `CS(=O)(=O)Nc1ccn(C(=O)N2CCN(Cc3ccc(Cl)c(N4CCN(S(C)(=O)=O)CC4)c3)CC2)n1` [Example 282, N-(1-(4-(4-chloro-3-(4-(methylsulfonyl)piperazin-1-yl)benzyl)piperazine-1-carbonyl)-1H-pyrazol-3-yl) methanesulfonamide], the inhibition at 1 µM is at least 75% on MAGL and 0 to 25% on FAAH.

Turning to `CS(=O)(=O)Nc1ccn(C(=O)N2CCN(Cc3ccc(Cl)c(-c4cnccn4)c3)CC2)n1` [Example 283, N-(1-(4-(4-chloro-3-(pyrazin-2-yl)benzyl)piperazine-1-carbonyl)-1H-pyrazol-3-yl) methanesulfonamide], the inhibition at 1 µM is at least 75% at MAGL and 0 to 25% on FAAH.

On to `CC(=O)N1CCN(c2cc(CN3CCN(C(=O)n4ccc(NS(C)(=O)=O)n4)CC3)ccc2Cl)CC1` [Example 284, N-(1-(4-(3-(4-acetylpiperazin-1-yl)-4-chlorobenzyl)piperazine-1-carbonyl)-1H-pyrazol-3-yl) methanesulfonamide], for which the pIC50 on MAGL is 6.00 to 7.00; at FAAH it was 5.00 to 6.00. Moreover, the inhibition at 1 µM at MAGL is at least 75%; at FAAH, 0 to 25%.
